Test results published in ChEMBL document CHEMBL1201862, “PubChem BioAssay data set” (2004).
Several values for one entry are separate records, joined by “and”; a condition that tells them apart may be missing. Identical values can stand only once.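 Growth conditions: 96-well plates. Treatment: test compound, 48 hours, 5 concentrations. Analysis: linear interpolation between bracketing concentrations; unreached endpoints set to highest concentration. Abbreviation: GI50, concentration required for 50% inhibition of growth.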 Activity calls are given as the source filed them. Cut-off read from the data, not from the text of the source: active = GI50 up to about 1.1 µM and inactive = higher.

Key:
Assay in all cases: NCI anticancer screen, dose series, 48 h
NCI/ADR-RES = test system: NCI/ADR-RES
SK-MEL-28 = test system: SK-MEL-28
UO-31 = test system: UO-31
RPMI-8226 = test system: RPMI-8226
EKVX = test system: EKVX
SNB-75 = test system: SNB-75
SK-MEL-2 = test system: SK-MEL-2
SN12C = test system: SN12C
LOX IMVI = test system: LOX IMVI
KM12 = test system: KM12
SK-MEL-5 = test system: SK-MEL-5
MOLT-4 = test system: MOLT-4
HT-29 = test system: HT-29
SF-539 = test system: SF-539
NCI-H460 = test system: NCI-H460
OVCAR-8 = test system: OVCAR-8
SF-295 = test system: SF-295
A549 = test system: A549
CCRF-CEM = test system: CCRF-CEM
K562 = test system: K562

| SMILES | GI50 (NCI/ADR-RES) | GI50 (SK-MEL-28) | GI50 (UO-31) | GI50 (RPMI-8226) | GI50 (EKVX) | GI50 (SNB-75) | GI50 (SK-MEL-2) | GI50 (SN12C) | GI50 (LOX IMVI) | GI50 (KM12) | GI50 (SK-MEL-5) | GI50 (MOLT-4) | GI50 (HT-29) | GI50 (SF-539) | GI50 (NCI-H460) | GI50 (OVCAR-8) | GI50 (SF-295) | GI50 (A549) | GI50 (CCRF-CEM) | GI50 (K562) |
| --- | --- | --- | --- | --- | --- | --- | --- | --- | --- | --- | --- | --- | --- | --- | --- | --- | --- | --- | --- | --- |
| O=[N+]([O-])c1ccc(-c2nc3cc([N+](=O)[O-])ccc3[nH]2)cc1 | 17.6 µM (inactive) | 40.6 µM (inactive) | 7.66 µM (inactive) | 13.7 µM (inactive) | 39.3 µM (inactive) | 39.4 µM (inactive) | 23.6 µM (inactive) | 23.9 µM (inactive) | 26.5 µM (inactive) | 24.8 µM (inactive) | 16.8 µM (inactive) | 29.9 µM (inactive) | 28.4 µM (inactive) | 23.5 µM (inactive) | 22 µM (inactive) | 22.4 µM (inactive) | 20 µM (inactive) | 15.1 µM (inactive) |  |  |
| OC(c1cc(C(F)(F)F)nc2c(Cl)cc(Cl)cc12)C1CCCCN1 (stereo not given) | 10.5 µM (inactive) | 15.3 µM (inactive) | 0.906 µM (active) | 1.95 µM (inactive) | > 100 µM (inactive) | 11.8 µM (inactive) | > 23.3 µM (inactive) |  | 2.93 µM (inactive) | 6.3 µM (inactive) | 8.65 µM (inactive) | 6.38 µM (inactive) |  | 14 µM (inactive) | 6.82 µM (inactive) | 13.2 µM (inactive) | 12.2 µM (inactive) | 20.5 µM (inactive) | 1.27 µM (inactive) | 5.22 µM (inactive) |
| CCOC(=O)CCSS(=O)(=O)C(F)(F)F | > 100 µM (inactive) | > 100 µM (inactive) | > 100 µM (inactive) | > 100 µM (inactive) | > 100 µM (inactive) | > 100 µM (inactive) | > 100 µM (inactive) | > 100 µM (inactive) | > 100 µM (inactive) | > 100 µM (inactive) | > 100 µM (inactive) |  |  |  | > 100 µM (inactive) | > 100 µM (inactive) | > 100 µM (inactive) | > 100 µM (inactive) | > 100 µM (inactive) |  |
| C=C(C)C(=O)[C@@]12C(=O)[C@@H](C)CC[C@H]1[C@H](C)C[C@@H]2C=C(C)C | 27.8 µM (inactive) | 34 µM (inactive) | 20.2 µM (inactive) | 27.9 µM (inactive) | 30.5 µM (inactive) | 34.8 µM (inactive) | 13.8 µM (inactive) | 20.8 µM (inactive) | 18.7 µM (inactive) | 23.9 µM (inactive) | 19.4 µM (inactive) | 15.8 µM (inactive) | 14.6 µM (inactive) | 19.9 µM (inactive) |  | 30.7 µM (inactive) | 33.9 µM (inactive) | 32.7 µM (inactive) | 23.1 µM (inactive) | 29.6 µM (inactive) |
| COc1ccc(C2C(=O)c3ccc(OC)cc3OC2c2cccnc2)cc1 (stereo not given) | > 100 µM (inactive) | > 100 µM (inactive) | > 100 µM (inactive) | > 100 µM (inactive) | > 100 µM (inactive) | 34.8 µM (inactive) | > 100 µM (inactive) | > 100 µM (inactive) | > 100 µM (inactive) | > 100 µM (inactive) | > 100 µM (inactive) | > 100 µM (inactive) | > 100 µM (inactive) | > 100 µM (inactive) | > 100 µM (inactive) | 56 µM (inactive) | 46.6 µM (inactive) | > 100 µM (inactive) | > 100 µM (inactive) | > 100 µM (inactive) |
| O=C1CC(=O)c2c(O)cc(O)c(c2O)-c2c(ccc(O)c2O)C2=CC(=O)c3c(O)cc(O)c(c3O2)-c2c1ccc(O)c2O.O=C1CC2(O)Oc3c1c(O)cc(O)c3-c1c(ccc(O)c1O)-c1cc(=O)c3c(O)cc(O)c(c3o1)-c1c2ccc(O)c1O | > 50 µM (inactive) | > 50 µM (inactive) | > 50 µM (inactive) |  | > 50 µM (inactive) | > 50 µM (inactive) | > 50 µM (inactive) | > 50 µM (inactive) | > 50 µM (inactive) |  | > 50 µM (inactive) | > 50 µM (inactive) | > 50 µM (inactive) | > 50 µM (inactive) | > 50 µM (inactive) | > 50 µM (inactive) | > 50 µM (inactive) | > 50 µM (inactive) | > 50 µM (inactive) | > 50 µM (inactive) |
| COc1ccc(/C=C2\CCNC2=O)cc1 | > 100 µM (inactive) | > 100 µM (inactive) | 75.2 µM (inactive) | > 100 µM (inactive) | > 29.4 µM (inactive) | > 47.1 µM (inactive) | > 100 µM (inactive) | > 100 µM (inactive) | > 100 µM (inactive) | > 100 µM (inactive) | > 100 µM (inactive) | > 100 µM (inactive) | > 100 µM (inactive) | > 76.6 µM (inactive) | > 100 µM (inactive) | > 100 µM (inactive) | > 100 µM (inactive) | > 100 µM (inactive) | > 100 µM (inactive) | > 100 µM (inactive) |
| Clc1ccc(C(SCc2ccccc2)SCc2ccccc2)cc1 | > 10 µM (inactive) | > 10 µM (inactive) | > 10 µM (inactive) | > 10 µM (inactive) | > 10 µM (inactive) | > 10 µM (inactive) | > 10 µM (inactive) | > 10 µM (inactive) | > 10 µM (inactive) | > 10 µM (inactive) | > 10 µM (inactive) | > 10 µM (inactive) | > 10 µM (inactive) | > 10 µM (inactive) | > 10 µM (inactive) | > 10 µM (inactive) | > 10 µM (inactive) | > 10 µM (inactive) | > 10 µM (inactive) | > 10 µM (inactive) |
| CC(NC(=O)C(C)NC(=O)C(N)CCP(C)(=O)O)C(=O)O (stereo not given) | > 100 µM (inactive) | > 100 µM (inactive) | > 100 µM (inactive) | > 100 µM (inactive) | > 100 µM (inactive) | > 100 µM (inactive) | > 100 µM (inactive) | > 100 µM (inactive) | > 100 µM (inactive) | > 100 µM (inactive) | > 100 µM (inactive) | > 100 µM (inactive) | > 100 µM (inactive) | > 100 µM (inactive) | > 100 µM (inactive) | > 100 µM (inactive) | > 100 µM (inactive) | > 100 µM (inactive) | > 100 µM (inactive) | > 100 µM (inactive) |
| COC(=O)c1cc2c(cc1CC(Cc1ccc3c(c1)CCC3)C(=O)OC)CCC2 (stereo not given) | 57.5 µM (inactive) | 84.1 µM (inactive) | 63.7 µM (inactive) | 16.5 µM (inactive) | 27 µM (inactive) | 22.9 µM (inactive) | 44.1 µM (inactive) | > 100 µM (inactive) | 40.6 µM (inactive) | 46.1 µM (inactive) | 17.6 µM (inactive) | 26.9 µM (inactive) | 26.1 µM (inactive) | 35 µM (inactive) | 65.5 µM (inactive) | > 100 µM (inactive) | 84.5 µM (inactive) | 34 µM (inactive) | 29.1 µM (inactive) | 34.2 µM (inactive) |
| c1ccc(C(NC2=NCCO2)C2CC2)cc1 (stereo not given) | > 100 µM (inactive) | > 100 µM (inactive) | > 100 µM (inactive) | > 100 µM (inactive) | > 100 µM (inactive) | > 100 µM (inactive) | > 100 µM (inactive) | > 100 µM (inactive) | > 100 µM (inactive) | > 100 µM (inactive) | > 100 µM (inactive) | > 100 µM (inactive) | 58.1 µM (inactive) | 32.3 µM (inactive) | 75.2 µM (inactive) | > 100 µM (inactive) | > 100 µM (inactive) | > 100 µM (inactive) |  |  |
| O=C(O)c1cnc2c(ccc3ncc(C(=O)O)c(O)c32)c1O | > 100 µM (inactive) | > 100 µM (inactive) | > 100 µM (inactive) | > 100 µM (inactive) | > 100 µM (inactive) | 34.8 µM (inactive) | > 100 µM (inactive) | > 100 µM (inactive) | > 100 µM (inactive) | > 100 µM (inactive) | > 100 µM (inactive) | > 100 µM (inactive) | > 100 µM (inactive) | > 100 µM (inactive) | > 100 µM (inactive) | > 100 µM (inactive) | > 100 µM (inactive) | > 100 µM (inactive) |  | > 100 µM (inactive) |
| Oc1ccc(-c2nc3cc(C(F)(F)F)ccc3s2)cc1 | 20 µM (inactive) |  | 13.6 µM (inactive) | 16.7 µM (inactive) | 1.77 µM (inactive) |  | 16.1 µM (inactive) | 17.7 µM (inactive) | 12.8 µM (inactive) | 13.1 µM (inactive) | 14.9 µM (inactive) | 27.2 µM (inactive) | 18.9 µM (inactive) | 19.5 µM (inactive) | 15.4 µM (inactive) | 15.6 µM (inactive) | 15 µM (inactive) | 15.4 µM (inactive) | 12.2 µM (inactive) | 23.9 µM (inactive) |
| COc1cc(NC(C)CCCN)c2ncccc2c1 (stereo not given) [PRIMAQUINE PHOSPHATE] | > 100 µM (inactive) |  |  | 42.8 µM (inactive) and 22.6 µM (inactive) | > 66.1 µM (inactive) and 77.3 µM (inactive) | 47.2 µM (inactive) and 24.1 µM (inactive) | 26.9 µM (inactive) and 45.1 µM (inactive) |  | 43.9 µM (inactive) and 51.4 µM (inactive) | > 81.5 µM (inactive) and 73.3 µM (inactive) | 29.8 µM (inactive) and 17.8 µM (inactive) | 25.2 µM (inactive) and 39.4 µM (inactive) | 37.1 µM (inactive) and 28.8 µM (inactive) | > 100 µM (inactive) |  | 70.6 µM (inactive) and 63.1 µM (inactive) | 98.2 µM (inactive) and 52.4 µM (inactive) | > 100 µM (inactive) | 26.7 µM (inactive) and 45.8 µM (inactive) | 28.9 µM (inactive) and 20.9 µM (inactive) |
